The test system of experiment [1] is FOS mRNA. Particulars: in culture; susceptible cell lines A431, CAL27, and HN11; cited from earlier work.
The subject of another experiment is FOS expression. Particulars: 14 days treatment, cited from earlier work.
In experiment [2] the test system is FOS mRNA. As to the kind of experiment: FOS mRNA induction by quantitative RT-PCR in MCF-7 cells. It counts as cell-based, human. Particulars: 100 ng/ml of EGF ligand, incubation 0-45 minutes. On the procedure: A functional measurement of cellular activation includes FOS mRNA induction determined by quantitative RT-PCR. FOS is an early response gene associated with the EGFR pathway. In an experiment, MCF-7 cells were grown in normal growth conditions in 6 well plates to 80% confluency. Cells were gently scraped and exposed to increasing shear forces (0-800 dyne/cm^2 through the Harvard Pipetter) in addition to increasing incubation times (0-45 minutes) in the presence or absence of 100 ng/ml of EGF ligand (Sigma) prior to RNA extraction. FOS mRNA induction peaks at 30-45 minutes and returns to basal levels in approximately 60 minutes. FOS induction is also stimulated as a result of incubation with EGF ligand. […] See FIGS. 17 and 18 for a graphical depiction of the results obtained.

Setting [3] is: EGFR-sensitive A431, CAL27, and HN11 xenograft tumors, gefitinib (A431), erlotinib (CAL27, HN11).
Setting [4] is: resistant strains, xenografts, gefitinib (HuCCT1), erlotinib (Hep2).

Data on three compounds can be found in patent US9121801B2, “Methods and devices for cellular analysis” (BioMarker Strategies, LLC, priority 2007, dated 2015).

Like-named read-outs stand apart in the source and are kept apart here.

As for `C#Cc1cccc(Nc2ncnc3cc(OCCOC)c(OCCOC)cc23)c1` [erlotinib], the “FOS mRNA levels” value in the experiment on FOS mRNA [1] is recorded as “decrease FOS mRNA levels”. Also, the “increase in FOS expression in vivo” value was “abrogate the increase in FOS expression” with FOS expression (setting [3]) and “not in resistant strains” in the experiment with FOS expression (setting [4]).
For `COc1cc2ncnc(Nc3ccc(F)c(Cl)c3)c2cc1OCCCN1CCOCC1` [gefitinib], the “FOS mRNA levels” value in the experiment with FOS mRNA [1] was “decrease FOS mRNA levels”. Also, the “increase in FOS expression in vivo” value in the experiment with FOS expression (setting [3]) is “abrogate the increase in FOS expression”; with FOS expression (setting [4]), “not in resistant strains”.
As to “EGF ligand: growth factor, tumor-cell stimulatory ligand (Sigma) (NSDSECPLSHDGYCLHDGVCMYIEALDKYACNCVVGYIGERCQYRDLKWWELR; Epidermal growth factor; UniProt P01133 971-1023, looked up)”, the FOS induction result in the experiment on FOS mRNA [2] was “stimulated”.
